Where “and” joins values, the source holds several entries; their conditions need not be identical. Identical values can stand only once. Like-named read-outs stand apart in the source and are kept apart here.
What was measured:
[1] = target: T1, vanilloid receptor 1 (VR1/TRPV1) of the rat species (Rattus norvegicus, UniProt O35433); test: FLIPR Ca2+ influx assay on rat dorsal root ganglia cells (pharmacological method I); type: cell-based; details: for inhibition at 1 µM / inhibition in percent, Ki (rat) Cap.: ne = no effect, @ 1 μM; for Ki: table 4, capsaicin
T1 construct: The spinal column is removed from decapitated rats; from tissue; host or cells: primary cells dissociated from rat dorsal root ganglia
T1 sequence (O35433 whole entry): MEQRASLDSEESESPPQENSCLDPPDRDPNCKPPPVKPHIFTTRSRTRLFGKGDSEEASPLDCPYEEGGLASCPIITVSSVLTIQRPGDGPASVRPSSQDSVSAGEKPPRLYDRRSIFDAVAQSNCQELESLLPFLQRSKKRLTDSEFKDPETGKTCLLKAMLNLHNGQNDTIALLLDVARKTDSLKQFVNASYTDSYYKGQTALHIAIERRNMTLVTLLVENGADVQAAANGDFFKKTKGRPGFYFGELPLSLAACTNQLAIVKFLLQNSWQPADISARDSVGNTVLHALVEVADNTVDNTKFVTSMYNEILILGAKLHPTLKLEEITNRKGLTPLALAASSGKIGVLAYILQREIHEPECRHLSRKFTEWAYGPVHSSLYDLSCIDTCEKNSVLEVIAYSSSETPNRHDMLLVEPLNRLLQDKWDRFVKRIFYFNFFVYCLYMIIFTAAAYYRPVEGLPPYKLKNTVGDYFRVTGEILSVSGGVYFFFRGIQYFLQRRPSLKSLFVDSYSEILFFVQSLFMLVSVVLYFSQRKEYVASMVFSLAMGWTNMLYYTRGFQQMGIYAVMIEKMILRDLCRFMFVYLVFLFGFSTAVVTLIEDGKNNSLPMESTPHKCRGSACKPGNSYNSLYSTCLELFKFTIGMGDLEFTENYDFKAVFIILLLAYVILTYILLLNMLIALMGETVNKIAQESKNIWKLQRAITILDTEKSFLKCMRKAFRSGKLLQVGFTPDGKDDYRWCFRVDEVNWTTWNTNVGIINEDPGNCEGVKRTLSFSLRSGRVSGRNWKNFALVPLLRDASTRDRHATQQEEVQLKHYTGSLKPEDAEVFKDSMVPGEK
How it was run: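 Primary rat dorsal root ganglion cells loaded with 2 μM Fluo-4, Ca2+ influx read on FLIPR as peak fluorescence. Triplicates, at least 3 independent experiments.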

vanilloid receptor (VR1) [2] = target: T2, vanilloid receptor (VR1) (Homo sapiens, UniProt Q8NER1); test: FLIPR Ca2+ influx assay on CHO K1 cells transfected with the VR1 gene (pharmacological method II); type: cell-based; details: for inhibition at 1 µM / inhibition in percent, Ki (human) Cap.: ne = no effect, @ 1 μM
T2 construct: expressed in transfected cells; host or cells: CHO K1 cells (ECACC), stably transfected
T2 sequence (Q8NER1 whole entry): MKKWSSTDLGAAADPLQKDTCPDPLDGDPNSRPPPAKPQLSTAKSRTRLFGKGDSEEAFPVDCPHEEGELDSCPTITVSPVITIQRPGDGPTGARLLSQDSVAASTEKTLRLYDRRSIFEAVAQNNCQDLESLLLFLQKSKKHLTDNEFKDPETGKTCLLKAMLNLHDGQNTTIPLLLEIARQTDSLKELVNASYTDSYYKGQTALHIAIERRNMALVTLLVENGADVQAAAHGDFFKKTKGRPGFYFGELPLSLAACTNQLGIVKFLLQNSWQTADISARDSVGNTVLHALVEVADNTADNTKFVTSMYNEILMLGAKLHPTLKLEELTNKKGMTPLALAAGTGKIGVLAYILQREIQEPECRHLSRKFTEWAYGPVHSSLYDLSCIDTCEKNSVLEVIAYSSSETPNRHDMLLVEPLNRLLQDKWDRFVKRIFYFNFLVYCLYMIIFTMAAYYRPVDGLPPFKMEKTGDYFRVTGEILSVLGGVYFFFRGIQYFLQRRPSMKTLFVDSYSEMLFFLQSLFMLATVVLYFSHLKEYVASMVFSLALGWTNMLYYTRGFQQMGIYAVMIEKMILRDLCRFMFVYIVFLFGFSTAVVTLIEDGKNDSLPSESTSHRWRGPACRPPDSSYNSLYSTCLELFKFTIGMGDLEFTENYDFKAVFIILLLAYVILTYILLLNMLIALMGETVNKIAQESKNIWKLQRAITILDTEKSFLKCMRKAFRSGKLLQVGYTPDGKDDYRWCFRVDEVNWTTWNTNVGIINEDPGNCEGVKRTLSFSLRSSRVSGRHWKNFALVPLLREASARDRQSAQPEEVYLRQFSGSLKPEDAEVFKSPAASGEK

VR1/TRPV1 receptor = VR1/TRPV1 receptor (Homo sapiens, UniProt Q8NER1); test: IC50 (human) after pH stimulus; type: cell-based; details: for IC50: table 4
Sequence of VR1/TRPV1 receptor (Q8NER1 whole entry): as above

vanilloid receptor (VR1) [3] = target: T2, vanilloid receptor (VR1); test: FLIPR Ca2+ influx assay on CHO K1 cells transfected with the VR1 gene (pharmacological method II); type: cell-based; details: table 4; capsaicin; read-out: Ki (human) Cap.
[4] = test system: cold allodynia after chronic constriction injury; test: Neuropathic pain in mice, Bennet model (chronic constriction injury, cold allodynia); type: in vivo; details: mouse
Excerpt: VI. Neuropathic Pain in Mice
The efficacy of compounds of general formula I in the treatment of neuropathic pain is investigated by using the Bennet modell (chronic constriction injury; Bennett and Xie, 1988, Pain 33: 87-107.
NMRI mice (weight 16 to 18 g) under ketavet-rompun anaesthesia are supplied with three loose ligatures of the right nervus ischiaticus. The animals develop an oversensitivity to cold at the position of the pad that is innervated by the injured nerve which—after a recovery period of one week—is quantified over a period of three weeks by using a metal plate that is cooled to 4° C. (cold allodynia). The animals are observed for a period of 2 minutes on this plate and the number of brisk withdrawal reactions of the injured nerve is counted. […] The group size is n=10, the stastical significance of efficacy against allodynia (*=p<0.05) is determined by analysis of variance with repeated measurements and post hoc analysis with Bonferroni adjustment.

[5] = test system: formaldehyde induced nociceptive behaviour; test: Formaldehyde test in mice, second (late) phase; type: in vivo, mouse; details: 0.3 mg/kg body weight po; mouse; read-out: inhibition formaldehyde test (n = 10)
[6] = test system: capsaicin induced hypothermie; test: Hypothermie assay in the mouse (capsaicin induced hypothermie); type: in vivo; details: 0.3 mg/kg body weight po; mouse; read-out: inhibition hypothermie (n = 5)
[7] = read-out: inhibition in percent, Ki (rat) Cap.
[8] = CHO-K1, read-out: inhibition in percent, Ki (human) Cap.
[9] = @ 10 μM, read-out: inhibition in percent, IC50 (human) after pH stimulus
[10] = read-out: inhibition in percent, IC50 (human) after pH stimulus

Molecule CC(C(=O)NCc1ccc(C(F)(F)F)nc1N1CCC(N2CCCCC2)CC1)c1ccc(NS(C)(=O)=O)c(F)c1 (stereo not shown) [Compound 164] has an inhibition at 1 µM [1, 7] of 1.5% and an inhibition at 1 µM (vanilloid receptor (VR1) [2]; [8]) of 20%.
With CC(C(=O)NCc1ccc(C(F)(F)F)nc1N1CCN(c2ccncc2)CC1)c1ccc(NS(C)(=O)=O)c(F)c1 (stereo not shown) [Compound 176] the inhibition at 1 µM [1, 7] was 8% and the inhibition at 1 µM (vanilloid receptor (VR1) [2]; [8]) was 7.2%.
With CC1CCN(c2nc(C(F)(F)F)ccc2CNC(=O)C(C)c2ccc(NS(=O)(=O)C(F)(F)F)c(F)c2)CC1 (stereo not shown) [Compound 312] the inhibition at 1 µM (vanilloid receptor (VR1) [2]; [8]) was 7%.
CC(C(=O)NCc1ccc(C(F)(F)F)nc1N1CCS(=O)(=O)CC1)c1ccc(NS(C)(=O)=O)c(F)c1 (stereo not shown) [Compound 314] was tested, and the inhibition at 1 µM (vanilloid receptor (VR1) [2]; [8]) was 12%.
CC(C(=O)NCc1ccc(C(F)(F)F)nc1OCC1CCNCC1)c1ccc(NS(C)(=O)=O)c(F)c1 (stereo not shown) [Compound 343] gave an inhibition at 1 µM (vanilloid receptor (VR1) [2]; [8]) of 8%.
For CC(C(=O)NCc1ccc(C(F)(F)F)nc1OC1CCNCC1)c1ccc(NS(C)(=O)=O)c(F)c1 (stereo not shown) [Compound 344], the inhibition at 1 µM (vanilloid receptor (VR1) [2]; [8]) was 3%.
In the case of CC(C(=O)NCc1ccc(C(F)(F)F)cc1N)c1ccc(NS(C)(=O)=O)c(F)c1 (stereo not shown) [Example 61, N-(2-amino-4-(trifluoromethyl)benzyl)-2-(3-fluoro-4-(methylsulfonamido)-phenyl)propanamide], the “inhibition in percent, Ki (rat) Cap.” value [1] is reported as “ne @ 1 μM”, the “inhibition in percent, Ki (human) Cap.” value (vanilloid receptor (VR1) [2]) is reported as “ne @ 1 μM” and the inhibition at 10 µM (VR1/TRPV1 receptor; [9]) is reported as 47%.
With CC(C(=O)NCc1ccc(C(F)(F)F)cc1[N+](=O)[O-])c1ccc(NS(C)(=O)=O)c(F)c1 (stereo not shown) [Example 62, 2-(3-fluoro-4-(methylsulfonamido)phenyl)-N-(2-nitro-4-(trifluoromethyl)-benzyl)propanamide] the “inhibition in percent, Ki (rat) Cap.” value [1] was “ne @ 1 μM”, the “inhibition in percent, Ki (human) Cap.” value (vanilloid receptor (VR1) [2]) was “ne @ 1 μM” and the “inhibition in percent, IC50 (human) after pH stimulus” value (shortened to “inhibition in percent, IC50 (human)”) (VR1/TRPV1 receptor; @ 1 μM, ne = no effect) was “ne @ 1 μM”.
With CC(C(=O)NCc1ncc(C(F)(F)F)cc1N1CCCC1)c1ccc(NS(C)(=O)=O)c(F)c1 (stereo not shown) [Example 78, 2-(3-Fluor-4-(methylsulfonamido)phenyl)-N-((3-(pyrrolidin-1-yl)-5-(trifluoromethyl)pyridin-2-yl)methyl)propanamide] the “inhibition in percent, Ki (rat) Cap.” value [1] was 19% @ 1 μM, the “inhibition in percent, Ki (human) Cap.” value (vanilloid receptor (VR1) [2]) was 15% @ 1 μM and the “inhibition in percent, IC50 (human)” value (VR1/TRPV1 receptor; @ 10 μM) was 36% @ 10 μM.
CCCCCCOc1nc(C(F)(F)F)ccc1CNC(=O)C(C)c1ccc(NS(C)(=O)=O)c(F)c1 (stereo not shown) [Example 91, 2-(3-fluoro-4-methylsulfonamido-phenyl)-N-(2-hexyloxy-6-trifluoromethyl-pyridin-3-ylmethyl)-propionamide] was tested, and the Ki ([1]; Ki (rat) Cap.) was 0.5 nM, the Ki (vanilloid receptor (VR1) [3]) was 0.5 nM and the IC50 (VR1/TRPV1 receptor) was 29.9 nM. The “inhibition Bennet model (n = 10)” value ([4]; 0.1 mg/kg body weight po) was 0.1 po 30%.
CC(C(=O)NCc1ccc(C(F)(F)F)nc1N1CCC(Cc2ccccc2)CC1)c1ccc(NS(C)(=O)=O)c(F)c1 (stereo not shown) [Example 104, N-(4-benzyl-6′-trifluoromethyl-3,4,5,6-tetrahydro-2H-[1,2′]bipyridinyl-3′-ylmethyl)-2-(3-fluoro-4-methylsulfonamido-phenyl)-propionamide] gave a Ki ([1]; read-out: Ki (rat) Cap.) of 0.2 nM, a Ki (vanilloid receptor (VR1) [3]) of 0.2 nM and an IC50 (VR1/TRPV1 receptor) of 40 nM. The “inhibition Bennet model (n = 10)” value ([4]; 0.0001 mg/kg body weight po) was 0.0001 po 20%.
For CC(C(=O)NCc1ccc(C(F)(F)F)nc1Nc1ccc(F)cc1)c1ccc(NS(C)(=O)=O)c(F)c1 (stereo not shown) [Example 112, 2-(3-fluoro-4-methylsulfonamido-phenyl)-N-[2-(4-fluoro-phenylamino)-6-trifluoromethyl-pyridin-3-ylmethyl]-propionamide], the Ki ([1]; read-out: Ki (rat) Cap.) was 31.8 nM and 236 nM, the Ki (vanilloid receptor (VR1) [3]) was 39.2 nM and the inhibition at 1 µM (vanilloid receptor (VR1) [2]; [8]) was 15%. The “inhibition in percent, IC50 (human)” value (VR1/TRPV1 receptor; @ 10 μM) was 64% @ 10 μM and the inhibition at 25 µM (VR1/TRPV1 receptor; [10]) was 67%.
Molecule CC(C(=O)NCc1ccc(C(F)(F)F)nc1N1CCC(N2CCCC2)CC1)c1ccc(NS(C)(=O)=O)c(F)c1 (stereo not shown) [Example 165, 2-(3-fluoro-4-methylsulfonamido-phenyl)-N-(4-pyrrolidin-1-yl-6′-trifluoromethyl-3,4,5,6-tetrahydro-2H-[1,2′]bipyridinyl-3′-ylmethyl)-propionamide] has an inhibition at 25 µM ([1]; @ 25 μM, read-out: inhibition in percent, Ki (rat) Cap.) of 82%, an inhibition in vivo at 0.3 mg/kg [5] of 29% and an inhibition at 25 µM (vanilloid receptor (VR1) [2]; CHO-K1, @ 25 μM, read-out: inhibition in percent, Ki (human) Cap.) of 76%. It also gave an inhibition in vivo at 0.3 mg/kg [6] of 41%, an inhibition at 10 µM (VR1/TRPV1 receptor; [9]) of 28% and an inhibition at 25 µM (VR1/TRPV1 receptor; [10]) of 40%.
In the case of CC(C(=O)NCc1c(CO)cc(C(C)(C)C)nc1OCc1ccccc1)c1ccc(NS(C)(=O)=O)c(F)c1 (stereo not shown) [Example 223, N-(2-benzyloxy-6-tert-butyl-4-hydroxymethyl-pyridin-3-ylmethyl)-2-(3-fluoro-4-methylsulfonamido-phenyl)-propionamide], the inhibition at 1 µM [1, 7] is reported as 53%, the inhibition at 1 µM (vanilloid receptor (VR1) [2]; [8]) is reported as 38% and the “inhibition in percent, IC50 (human)” value (VR1/TRPV1 receptor; @ 1 μM, ne = no effect) is reported as “ne @ 1 μM”.
For CC(C(=O)NCc1ccc(C(F)(F)F)nc1N1CCC(O)CC1)c1ccc(NS(C)(=O)=O)c(F)c1 (stereo not shown) [Example 269, 2-(3-fluoro-4-methylsulfonamido-phenyl)-N-(4-hydroxy-6′-trifluoromethyl-3,4,5,6-tetrahydro-2H-[1,2′]bipyridinyl-3′-ylmethyl)-propionamide], the “inhibition in percent, Ki (rat) Cap.” value [1] was “ne @ 1 μM”, the “inhibition in percent, Ki (human) Cap.” value (vanilloid receptor (VR1) [2]) was “ne @ 1 μM” and the “inhibition in percent, IC50 (human)” value (VR1/TRPV1 receptor; @ 1 μM, ne = no effect) was “ne @ 1 μM”.
CC(C(=O)NCc1ccc(C(F)(F)F)nc1-c1ccc2[nH]ccc2c1)c1ccc(NS(C)(=O)=O)c(F)c1 (stereo not shown) [Example 276, 2-(3-fluoro-4-methylsulfonamido-phenyl)-N-[2-(1H-indol-5-yl)-6-trifluoromethyl-pyridin-3-ylmethyl]-propionamide] was tested, and the inhibition at 5 µM (vanilloid receptor (VR1) [2]; [8]) was 78%, the inhibition at 0.1 µM (VR1/TRPV1 receptor; @ 0.1 μM, read-out: inhibition in percent, IC50 (human) after pH stimulus) was 11% and the inhibition at 1 µM (VR1/TRPV1 receptor; @ 1 μM, ne = no effect, read-out: inhibition in percent, IC50 (human) after pH stimulus) was 11%. For the same molecule, the inhibition at 5 µM (VR1/TRPV1 receptor; [10]) was 43%.
CC1CCN(c2nc(C(F)(F)F)ccc2CNC(=O)C(C)c2ccc(NS(=O)(=O)C(F)(F)F)c(F)c2)CC1 (stereo not shown) [Example 312, 2-(3-fluoro-4-trifluoromethylsulfonamido-phenyl)-N-(4-methyl-6′-trifluoromethyl-3,4,5,6-tetrahydro-2H-[1,2′]bipyridinyl-3′-ylmethyl)-propionamide] was tested, and the inhibition at 5 µM (vanilloid receptor (VR1) [2]; [8]) was 68% and the “inhibition in percent, IC50 (human)” value (VR1/TRPV1 receptor; @ 1 μM, ne = no effect) was “ne @ 1 μM”.
With CC(C(=O)NCc1ccc(C(F)(F)F)nc1N1CCS(=O)(=O)CC1)c1ccc(NS(C)(=O)=O)c(F)c1 (stereo not shown) [Example 314, N-[2-(1,1-dioxo-1l6-thiomorpholin-4-yl)-6-trifluoromethyl-pyridin-3-ylmethyl]-2-(3-fluoro-4-methylsulfonamido-phenyl)-propionamide] the inhibition at 5 µM (vanilloid receptor (VR1) [2]; [8]) was 46%, the inhibition at 5 µM (VR1/TRPV1 receptor; [10]) was 14% and the inhibition at 10 µM (VR1/TRPV1 receptor; [9]) was 31%.
CC(C(=O)NCc1ccc(C(F)(F)F)nc1OCC1CCNCC1)c1ccc(NS(C)(=O)=O)c(F)c1 (stereo not shown) [Example 343, 2-(3-fluoro-4-methylsulfonamido-phenyl)-N-[2-(piperidin-4-ylmethoxy)-6-trifluoromethyl-pyridin-3-ylmethyl]-propionamide] was tested, and the inhibition at 5 µM (vanilloid receptor (VR1) [2]; [8]) was 55% and the “inhibition in percent, IC50 (human)” value (VR1/TRPV1 receptor; @ 1 μM, ne = no effect) was “ne @ 1 μM”.
With CC(C(=O)NCc1ccc(C(F)(F)F)nc1OC1CCNCC1)c1ccc(NS(C)(=O)=O)c(F)c1 (stereo not shown) [Example 344, 2-(3-fluoro-4-methylsulfonamido-phenyl)-N-[2-(piperidin-4-yloxy)-6-trifluoromethyl-pyridin-3-ylmethyl]-propionamide] the inhibition at 5 µM (vanilloid receptor (VR1) [2]; [8]) was 34% and the “inhibition in percent, IC50 (human)” value (VR1/TRPV1 receptor; @ 1 μM, ne = no effect) was “ne @ 1 μM”.
